Data reported in the NIST ThermoML archive (doi:10.1016/j.fluid.2012.08.002).
± gives the expanded uncertainty stated by the source.

Conditions: 101.33 kPa, Liquid; for speed of sound: Sing-around technique in a fixed-path interferometer; for mass density: Vibrating tube method

Compound	speed of sound (288.15 K) [m/s]	mass density (288.15 K) [kg/m3]	speed of sound (293.15 K) [m/s]	mass density (293.15 K) [kg/m3]	speed of sound (298.15 K) [m/s]	mass density (298.15 K) [kg/m3]	speed of sound (303.15 K) [m/s]	mass density (303.15 K) [kg/m3]	speed of sound (308.15 K) [m/s]	mass density (308.15 K) [kg/m3]	speed of sound (313.15 K) [m/s]	mass density (313.15 K) [kg/m3]	speed of sound (318.15 K) [m/s]	mass density (318.15 K) [kg/m3]
CCCCCCn1cc[n+](C)c1.F[P-](F)(F)(F)(F)F [1-hexyl-3-methylimidazolium hexafluorophosphate]	1449.1 ± 1.2	1302.74 ± 0.49	1434.1 ± 1.2	1298.71 ± 0.48	1420.3 ± 1.2	1294.69 ± 0.48	1407.3 ± 1.2	1290.66 ± 0.48	1394.9 ± 1.2	1286.64 ± 0.47	1383 ± 1.2	1282.63 ± 0.47	1371.5 ± 1.2	1278.72 ± 0.47
CCCCCCn1cc[n+](C)c1.F[B-](F)(F)F [1-hexyl-3-methylimidazolium tetrafluoroborate]	1548.8 ± 1.2	1155.32 ± 0.36	1535 ± 1.2	1151.79 ± 0.35	1521.9 ± 1.2	1148.26 ± 0.35	1509.2 ± 1.2	1144.74 ± 0.35	1497 ± 1.2	1141.23 ± 0.34	1485 ± 1.2	1137.83 ± 0.34	1473.3 ± 1.2	1134.43 ± 0.34
COCCO [2-methoxyethan-1-ol]	1376.5 ± 0.85	969.374 ± 0.091	1359 ± 0.85	964.809 ± 0.092	1341.7 ± 0.84	960.222 ± 0.094	1324.5 ± 0.84	955.615 ± 0.095	1307.1 ± 0.83	950.971 ± 0.097	1290 ± 0.83	946.306 ± 0.098	1272.8 ± 0.82	941.609 ± 0.099
CCCCCCn1cc[n+](C)c1.[Br-] [3-hexyl-1-methyl-1H-imidazolium bromide]	1639.8 ± 1.3	1231.03 ± 0.42	1610.6 ± 1.3	1227.49 ± 0.42	1587.5 ± 1.3	1223.82 ± 0.42	1568.1 ± 1.3	1220.47 ± 0.41	1551.2 ± 1.3	1216.79 ± 0.41	1533.5 ± 1.2	1213.28 ± 0.41	1517.8 ± 1.2	1209.94 ± 0.4
